The conditions of series [1]: oral doses greater than 10 mg/kg (J. Med. Chem., 1993, 36:4214-4220); cited from earlier work.
Series [2] has as its system oxaliplatin-induced neuropathy. Put plainly: Oxaliplatin-induced neuropathy in rats, paw pressure test. The settings on record: 300 mg/kg p.o. once a day. It counts as in vivo, Sprague-Dawley rats. The procedure: Paw pressure test was performed 4 days after the last injection (Marchand F. et al. 2003, Brain Res. 980:117-120). • Taxol: taxol neuropathy was induced by intraperitoneal administration of 0.5 mg/kg once a day, on days 1, 3, 5 and 8. […] The pharmacological test was performed 14-18 days after the last taxol injection (Polomano R. C. et al. 2001, Pain 94:293-304). • Oxaliplatin: 2.4 mg/kg were injected by intraperitoneal route for 5 consecutive days followed by 2 days suspension (one cycle). A total of 3 cycles was performed, reaching a cumulative dose of 36 mg/kg (Cavaletti G. 2001, Eur. J. Cancer 37:2457-2463). The test was performed 48 h after the last oxaliplatin injection. 1.2 Antiviral-Induced Neuropathy […] The nociceptive threshold was determined with an analgesimeter (Ugo Basile, Italy), exerting a force that increases at constant rate (32 g/s) according to the method described by Leighton G. E. 1988, Br. J. Pharmacol. 93:553-560. The stimulus causing paw withdrawal was evaluated before and at different times after treatment. Results represent the mean of mechanical thresholds expressed as grams. To avoid any possible damage to the animal paw the maximum applied force was fixed at 240 g. The effect of […] evaluated in the oxaliplatin-induced neuropathy model after repeated administration with the paw pressure test.

For series [3], the system named is rats. Put plainly: Rotarod/ataxia test in rats. Conditions: p.o., rotating rod 10 rpm. The procedure: (§1) Neurological deficits were evaluated by the inability of the rats to remain on the rotating rod (10 rpm) for the test period.
For orientation: In the rotarod test animals must keep their balance on a rotating rod.

Series [4] deals with rats. The series can be described thus: Irwin test in rats. The format is in vivo, Sprague Dawley rats. Here is the method: To verify if the administration of the compound may induce centrally mediated side effects, adult male Sprague Dawley rats (150-200 g, supplier Harlan) were treated with dimiracetam by subcutaneous and oral routes and monitored according to the “Irwin test” protocol (Irwin 1968, Psychopharmacologia 13:222-257), a systematic and quantitative procedure for assessing the behavioral and physiological modifications induced in animals by the drug treatment.
Rats were constantly monitored for 30 min after administration. Monitoring was iterated every morning at 9 a.m. for 4 days after administration.

For series [5], the system named is mice. The series can be described thus: Hole board test in mice. The format is in vivo, Swiss Webster mice. The settings on record: 30 min after oral administration. The source says:
The hole board test allows to study the behavior of rodents when confronted with a new environment (Boissier J R 1964, Therapie 19:571-583). The test enables to evaluate the initial exploratory activity of the animal and its possible variations induced by drug administration.
The hole board test uses a 40 cm square plane with 16 flush-mounted cylindrical holes (diameter 3 cm) distributed 4 by 4 in an equidistant, grid-like manner. Mice (male Swiss Webster mice weighing 25-30 g, supplier Morini) are placed one by one in the center of the board and allowed to move freely, each for a period of 5 min. Two photoelectric beams, crossing the plane from mid-point to mid-point of opposite sides, and thus dividing the plane into four equal quadrants, automatically record the movements of the animals on the plane surface. Miniature photoelectric cells in each of the 16 holes record the exploration of the holes (head plunging activity) by the mice.

The test system of series [6] is ddC-induced neuropathy. Put plainly: ddC-induced (antiviral-induced) neuropathy, von Frey test. The format is in vivo, Sprague Dawley rats. The settings on record: 100 mg/kg. The procedure: (§2) Adult male Sprague Dawley rats (150-200 g, supplier Harlan) were treated by intravenous route with a single administration of 25 mg/kg of nucleoside reverse transcriptase inhibitors ddC (2′,3′-dideoxycytidine) or d4T (2′,3′-didehydro-3′-deoxythymidine). Administration of these anti-HIV drugs induced a marked allodynic response to a mechanical stimulus (Joseph E. K. 2004, Pain 107:147-158). The maximum reduction of the paw pressure threshold is developed between day 5 and day 10 after injection. The test was performed on day 10.
Rats (male adult Sprague Dawley rats, 150-200 g, supplier Harlan) were placed in a chamber with a mesh metal floor covered by a plastic dome that enabled the animals to walk freely, but not to jump. The mechanical stimulus was delivered in the mid-plantar skin of left hind paw using an electronic von Frey apparatus. The cut-off was fixed at 50 g, while the increasing force rate (ramp duration) was settled at 20 sec.

Series [7] deals with Sprague Dawley rats. The settings on record: rat, in vivo, 3000 mg/kg.
Series [8] has as its system rats motor coordination. The series can be described thus: Motor coordination in rats (rotarod). The format is in vivo, Sprague Dawley rats. Here is the method:
The rotarod test allows the evaluation of the effects of a compound on motor coordination. Adult male Sprague Dawley rats (200-220 g, supplier Harlan, Milan) were placed on a plastic rod 6 cm in diameter and 35 cm in length, rotating at constant speed (16 rpm) at a height of 25 cm. The rod is divided in 4 equal sections, thus up to 4 animals may be tested simultaneously. The animals were required to walk against the motion of the rotating drum over 30 seconds. The time taken to fall off the rotarod was recorded as number of falls in 30 seconds, following the method of Vaught et al. 1985, Neuropharmacology 24:211-216. In each experiment motor coordination is measured before (pre-test) and after administration of the tested compound. Rats scoring less than 3 and more than 6 falls in the pretest are rejected.

Series [9] relates to Cynomolgus monkeys. Conditions: cynomolgus monkey, in vivo, po, 2000 mg/kg/day.
The subject of series [10] is Sprague Dawley rats. The settings on record: rat, in vivo, po, 2500 mg/kg/day.
Series [11] concerns MIA-induced osteoarthritic pain. Put plainly: MIA-induced osteoarthritic pain in rats, paw pressure test. It counts as in vivo, Sprague Dawley rats. The procedure: Osteoarthritis was induced by a single administration of 2 mg (in a volume of 25 μl) of sodium 2-iodoacetate into the left knee joint of anaesthetized rats (male adult Sprague Dawley rats, 150-200 g, supplier Harlan) (Fernihough J. 2004, Pain 112:83-93). This treatment induces the progressive degeneration of the joint and the development of hyperalgesia, mimicking at the histological and behavioral levels what observed in humans. Pharmacological test was performed 7 days after treatment.
Mechanical hyperalgesia in rats (male adult Sprague Dawley rats, 150-200 g, supplier Harlan) was determined using the paw pressure test. The nociceptive threshold was determined with an analgesimeter (Ugo Basile, Italy), exerting a force that increases at constant rate (32 g/s) according to the method described by Leighton G. E. 1988, Br. J. Pharmacol. 93:553-560. The stimulus causing paw withdrawal was evaluated before and at different times after treatment. Results represent the mean of mechanical thresholds expressed as grams. To avoid any possible damage to the animal paw the maximum applied force was fixed at 240 g.

The subject of series [12] is ddC-induced neuropathy. The series can be described thus: ddC-induced neuropathy, paw pressure test. It counts as in vivo, Sprague Dawley rats. Conditions: 300 mg/kg orally. The procedure: as §2
Mechanical hyperalgesia in rats (male adult Sprague Dawley rats, 150-200 g, supplier Harlan) was determined using the paw pressure test. The nociceptive threshold was determined with an analgesimeter (Ugo Basile, Italy), exerting a force that increases at constant rate (32 g/s) according to the method described by Leighton G. E. 1988, Br. J. Pharmacol. 93:553-560. The stimulus causing paw withdrawal was evaluated before and at different times after treatment. Results represent the mean of mechanical thresholds expressed as grams. […]
Dimiracetam is a racemic compound; the two corresponding enantiomers were synthesized and separately tested in the ddC-induced neuropathy model. The two compounds were administered orally at doses of 150 and 300 mg/kg and their antihyperalgesic activity was evaluated with the paw pressure test.

Series [13] in a line: Rotarod/ataxia test in rats. Conditions: rat, in vivo, po. The procedure: as §1
Setting [14] is: 150 mg/kg, 15-30 min after administration.

Read-outs that look alike come from different tables or passages of the source.

Turning to `O=C1CN2C(=O)CCC2N1` (racemic) [dimiracetam, 2,5-dioxohexahydro-1H-pyrrolo[1,2-a]imidazole], the “nootropic activity, dose-response” value in [1] is listed as “tends to lower”. For the same compound, in series [2], the “time after administration at which effect was statistically significant” value is “between 30 min and 4 h”. In series [2] (starting three days before oxaliplatin treatment and during it), the “mechanical hyperalgesia (paw pressure test)” value was “significantly reduced mechanical hyperalgesia”. The “TD25 (dose causing 25% of fallen rats)” value in [3] turned out to be 6000 mg/kg. Also, the “effects on behavioral parameters (Irwin test)” value in series [4] (1000 mg/kg by subcutaneous route) and in series [4] (3000 mg/kg p.o.) was “did not show any effects” each time. Besides, the “curiosity (number of head plungings)” value in series [5] (3000 mg/kg p.o.) was “does not significantly reduce”. Also, in series [5] (3000 mg/kg p.o.), the “spontaneous activity (number of movements of each animal on the plane)” value is “does not significantly reduce”. Besides, the “ddC-induced allodynia (von Frey mechanical threshold)” value was “fully reverted ddC-induced allodynia” in [6] (15-30 min after administration) and “still statistically significant” in series [6] (45 min after treatment). Besides, the “tolerability / signs of toxicity, single dose” value in series [7] (iv) and in series [7] (po) was “substantially well tolerated” throughout. Also, the “motor coordination (number of falls in 30 sec, rotarod)” value in series [8] (3000 mg/kg p.o., acute) is listed as “does not alter rats motor coordination”. In addition, the “tolerability, repeated dose” value in series [9] and in [10] was “well tolerated” in each case. Also, the “mortality, symptomatology, normal behavior, repeated dose” value in series [10] is on record as “did not produce any changes”. Besides, the “reversal of MIA-induced hyperalgesia (paw pressure test)” value is “statistically significant effect” in series [11] (setting [14]); “still statistically significant” in [11] (300 mg/kg, 60 min after administration); “fully reverted MIA-induced hyperalgesia” in [11] (300 mg/kg, between 15 and 45 min after administration).
In the case of `O=C1CN2C(=O)CC[C@H]2N1` (single isomer, unassigned) [(S) enantiomer], the “antihyperalgesic activity (paw pressure mechanical threshold)” value in [12] (15 min after administration) is reported as “significant effect”.
As to `O=C1CN2C(=O)CC[C@@H]2N1` [(R)-dimiracetam], the “antihyperalgesic activity (paw pressure mechanical threshold)” value in series [12] (15-45 min after administration) was “significant reduction of the pain mechanical threshold”. The “reversal of MIA-induced hyperalgesia (paw pressure test)” value in series [11] (setting [14]) is “statistically significant effect”; in [11] (45 min after treatment, dose not restated), “still statistically significant”.
`NCC1(CC(=O)O)CCCCC1` [Gabapentin, gabapentin, reference compound]: in [3], the “TD16 (dose causing 16% of fallen rats)” value came out at 1000 mg/kg. In series [5] (1000 mg/kg), the “curiosity (number of head plungings)” value was “statistically significant reduction” and the “spontaneous activity (number of movements of each animal on the plane)” value was “statistically significant reduction”.
Regarding `N#Cc1cccc(N2C(=O)CN3C(=O)CCC32)c1` (stereo not shown) [I-(3-cyanophenyl)-tetrahydropyrrolo[1,2-a]imidazole-2,5-dione], the “dose from which the number of falls is increased (rotarod)” value in [8] (rat, in vivo) turned out to be 300 mg/kg. Also, in series [8] (starting from the dose of 300 mg/kg), the “motor coordination (number of falls in 30 sec, rotarod)” value was “significantly altered animals motor coordination”.
Consider `CC[C@@H](C(N)=O)N1CCCC1=O` [levetiracetam], for which the TD50 (commonly the 50% point of the dose-response relation for the toxic effect studied) in series [13] stood at 2000 mg/kg.
Consider `CC(C)C[C@H](CN)CC(=O)O` [pregabalin], for which, in series [13], the TD50 came to 536 mg/kg. This TD50 is about 3.7-fold lower than that of the compound before.
With `COc1cccc(C2(O)CCCCC2CN(C)C)c1` (stereo not shown) [tramadol], in series [13], the TD50 amounted to 253 mg/kg.

(Values after patent US8222241B2, “Use of dimiracetam in the treatment of chronic pain” (priority 2007, dated 2012).)
